Common to all, as to test: Post-emergence foliage spray, pot culture, fresh weight inhibition (Tables 151-206; 20 days)
Common to all, as to format: in vivo

One test has as its system Sinapis arvensis. In short, it runs like this:
(§1)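 Field-collected weeds grown in pots in a greenhouse (20-30° C., natural light, 57-72% RH), 15 per pot, 3 pots × 4 replicates. Single foliar spray at 4-5 leaves (grasses) or 5-6 leaves (broadleaf) with acetone/0.1% Tween-80 dilutions at 450 kg/ha, 0.3 MPa. Above-ground fresh weight inhibition versus solvent blank at 20 days.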

A further test deals with Digitaria sanguinalis. The conditions noted are these: Digitaria sanguinalis, 480 h, read-out: Control effect (%) of A applied alone in corresponding dose. Summed up: as §1
The test system of a further test is Alopecurus japonicus. Summed up:
as §1

The subject of the next test is Eleusine indica. Summed up: as §1
The next test has as its system Capsella bursa-pastoris. The conditions noted are these: Capsella bursa-pastoris, 480 h, read-out: Control effect (%) of A applied alone in corresponding dose. In short, it runs like this:
(§2)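 Pre-germinated seeds (25° C soak 6 h, 28° C dark) grown in pots, thinned to 15 per pot; foliage-sprayed at 4~5-leaf (grasses) or 5~6-leaf (broadleaf) stage, 450 kg/ha spray volume, 0.3 MPa. Agents in acetone diluted with 0.1% Tween-80 water; solvent blank control. Above-ground fresh weight weighed, dead weeds scored zero.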

In another test the test system is Amaranthus retroflexus. Summed up:
as §2

The mark [1] stands for this setting: A alone 75 g a.i./ha, 20 days after treatment.
Setting [2] is: A alone 150 g a.i./ha, 20 days after treatment.

The text below walks through data of patent US20220264878A1, “HERBICIDAL COMPOSITION CONTAINING R-TYPE PYRIDYLOXY CARBOXYLIC ACID DERIVATIVE AND USE THEREOF” (Qingdao Kingagroot Chemical Compound Co., Ltd., priority 2019, published 2022).

Like-named read-outs stand apart in the source and are kept apart here.

For the molecule `C[C@@H](Oc1nc(F)c(Cl)c(N)c1Cl)C(=O)O` [Compound A1], the “Control effect (%) of A applied alone in corresponding dose” value (from here on “Control effect (%) of A applied alone”) is reported as 50.4% with Sinapis arvensis (A 75 g a.i./ha, 20 days); 79.9% with Sinapis arvensis (A 150 g a.i./ha, 20 days); 31.3% in the test with Alopecurus japonicus (A 75 g a.i./ha, 20 days); 57.6% in the test with Alopecurus japonicus (A 150 g a.i./ha, 20 days); 46.9% in the test on Eleusine indica (A 75 g a.i./ha, 20 days); 81.2% in the test with Eleusine indica (A 150 g a.i./ha, 20 days). Further, the “Control effect (%) of A applied alone” value in the test with Amaranthus retroflexus (A 75 g a.i./ha, 20 days) is listed as 35.4%; with Amaranthus retroflexus (A 150 g a.i./ha, 20 days) it was 71.7%. Besides, the pest or weed control at 75 g/ha amounted to 25.9% in the test with Digitaria sanguinalis (A 75 g a.i./ha, 20 days) and 56.5% in the test on Capsella bursa-pastoris (A 75 g a.i./ha, 20 days). Also, the pest or weed control at 150 g/ha was 69.1% in the test with Digitaria sanguinalis (A 150 g a.i./ha, 20 days) and 82.4% in the test with Capsella bursa-pastoris (A 150 g a.i./ha, 20 days).
For the molecule `C[C@@H](Oc1nc(F)c(Cl)c(N)c1Cl)C(=O)OCC1CCCO1` (stereo partly drawn) [Compound A2], the “Control effect (%) of A applied alone” value in the test on Sinapis arvensis (setting [1]) is on record as 37.9%; with Sinapis arvensis (setting [2]), 60.4%; in the test with Alopecurus japonicus (setting [1]) it was 24.4%; in the test on Alopecurus japonicus (setting [2]) it was 44.5%; in the test on Eleusine indica (setting [1]), 35.7%; in the test with Eleusine indica (setting [2]), 63.3%. The “Control effect (%) of A applied alone” value is listed as 25.7% with Amaranthus retroflexus (setting [1]) and 51.8% with Amaranthus retroflexus (setting [2]). The values for the pest or weed control at 75 g/ha in the test on Digitaria sanguinalis (setting [1]) and in the test on Capsella bursa-pastoris (setting [1]) were 19.4% and 44.2%, respectively. Also, the pest or weed control at 150 g/ha turned out to be 51.6% in the test on Digitaria sanguinalis (setting [2]) and 65% in the test on Capsella bursa-pastoris (setting [2]).
